Publication PMC4450297, “Screening Active Compounds from Garcinia Species Native to China Reveals Novel Compounds Targeting the STAT/JAK Signaling Pathway” (BioMed Research International, 2015)

Key:
Assay in all cases: Cell panel screen (CellTiter-Glo)
Type in all cases: cell-based, human
[1] = tested on: A498; conditions: A498 (listed under Lung), 20 micromolar, 72 hrs
In short: (§1)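 Steps: seed cells, culture overnight at 37°C; add compound diluted in medium from DMSO stock to 20 μM final; incubate 72 h; add detection reagent for 10 min; read luminescence; compute % inhibition versus vehicle controls.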

[2] = tested on: A704; conditions: A704 (Kidney), 20 micromolar, 72 hrs
In short: as §1

[3] = tested on: BT-474; conditions: BT-474 (Breast), 20 micromolar, 72 hrs
In short: as §1

[4] = tested on: BT-549; conditions: BT-549 (Breast), 20 micromolar, 72 hrs
In short: as §1

[5] = tested on: Bel-7402; conditions: Bel-7402 (Liver), 20 micromolar, 72 hrs
In short: as §1

[6] = tested on: C3A; conditions: C3A (Liver), 20 micromolar, 72 hrs
In short: as §1

[7] = tested on: C8166; conditions: C8166 (Leukemia), 20 micromolar, 72 hrs
In short: as §1

[8] = tested on: CCF-STTG1; conditions: CCF-STTG1 (Brain), 20 micromolar, 72 hrs
In short: as §1

[9] = tested on: CW-2; conditions: CW-2 (Colon), 20 micromolar, 72 hrs
In short: as §1

[10] = tested on: ChaGo-K-1; conditions: ChaGo-K-1 (Lung), 20 micromolar, 72 hrs
In short: as §1

[11] = tested on: Colo 205; conditions: Colo 205, 20 micromolar, 72 hrs
In short: as §1

[12] = tested on: HCC1395; conditions: HCC1395 (Breast), 20 micromolar, 72 hrs
In short: as §1

[13] = tested on: HCC1569; conditions: HCC1569 (Breast), 20 micromolar, 72 hrs
In short: as §1

[14] = tested on: HCC1599; conditions: HCC1599 (Breast), 20 micromolar, 72 hrs
In short: as §1

[15] = tested on: HCC1937; conditions: HCC1937 (Breast), 20 micromolar, 72 hrs
In short: as §1

[16] = tested on: HEC-1-A; conditions: HEC-1-A (Uterus), 20 micromolar, 72 hrs
In short: as §1

[17] = tested on: HGC-27; conditions: HGC-27 (Stomach), 20 micromolar, 72 hrs
In short: as §1

[18] = tested on: HPAF-II; conditions: HPAF-II (Pancreas), 20 micromolar, 72 hrs
In short: as §1

[19] = tested on: HT-1197; conditions: HT-1197 (Urinary bladder), 20 micromolar, 72 hrs
In short: as §1

[20] = tested on: J82; conditions: J82 (Urinary bladder), 20 micromolar, 72 hrs
In short: as §1

[21] = tested on: M059J; conditions: M059J (Brain), 20 micromolar, 72 hrs
In short: as §1

[22] = tested on: MSTO-211-H; conditions: MSTO-211-H (Lung), 20 micromolar, 72 hrs
In short: as §1

[23] = tested on: NCI-H1623; conditions: NCI-H1623 (Lung), 20 micromolar, 72 hrs
In short: as §1

[24] = tested on: NCI-H1694; conditions: NCI-H1694 (Lung), 20 micromolar, 72 hrs
In short: as §1

[25] = tested on: NCI-H1770; conditions: NCI-H1770 (Lung), 20 micromolar, 72 hrs
In short: as §1

[26] = tested on: NCI-H2347; conditions: NCI-H2347 (Lung), 20 micromolar, 72 hrs
In short: as §1

[27] = tested on: NCI-H2405; conditions: NCI-H2405 (Lung), 20 micromolar, 72 hrs
In short: as §1

[28] = tested on: NCI-H28; conditions: NCI-H28 (Lung), 20 micromolar, 72 hrs
In short: as §1

[29] = tested on: NCI-H524; conditions: NCI-H524 (Lung), 20 micromolar, 72 hrs
In short: as §1

[30] = tested on: Panc 03.27; conditions: Panc 03.27 (Pancreas), 20 micromolar, 72 hrs
In short: as §1

[31] = tested on: RL95; conditions: RL95 (Uterus), 20 micromolar, 72 hrs
In short: as §1

[32] = tested on: SW13; conditions: SW13 (Adrenal gland), 20 micromolar, 72 hrs
In short: as §1

[33] = tested on: T47D; conditions: T47D (Breast), 20 micromolar, 72 hrs
In short: as §1

[34] = tested on: T98G; conditions: T98G (Brain), 20 micromolar, 72 hrs
In short: as §1

[35] = tested on: TCCSUP; conditions: TCCSUP (Urinary bladder), 20 micromolar, 72 hrs
In short: as §1

[36] = tested on: ZR-75-30; conditions: ZR-75-30 (Breast), 20 micromolar, 72 hrs
In short: as §1

SMILES	Percent Inhibition [1]	Percent Inhibition [2]	Percent Inhibition [3]	Percent Inhibition [4]	Percent Inhibition [5]	Percent Inhibition [6]	Percent Inhibition [7]	Percent Inhibition [8]	Percent Inhibition [9]	Percent Inhibition [10]	Percent Inhibition [11]	Percent Inhibition [12]	Percent Inhibition [13]	Percent Inhibition [14]	Percent Inhibition [15]	Percent Inhibition [16]	Percent Inhibition [17]	Percent Inhibition [18]	Percent Inhibition [19]	Percent Inhibition [20]	also measured
CC(C)=CCc1c(O)cc2oc3ccc(O)cc3c(=O)c2c1O [Ge-1]	54%	34%	30%	20%	19%	32%	9%	43%	62%	44%	29%	55%	52%	54%	11%	26%	54%	28%	50%	38%	Percent Inhibition [21]: 24%; Percent Inhibition [22]: 44%; Percent Inhibition [23]: 9%; Percent Inhibition [24]: 49%; Percent Inhibition [25]: 13%; Percent Inhibition [26]: 32%; Percent Inhibition [27]: 7%; Percent Inhibition [28]: 23%; Percent Inhibition [29]: 42%; Percent Inhibition [30]: 43%; Percent Inhibition [31]: 37%; Percent Inhibition [32]: 57%; Percent Inhibition [33]: 45%; Percent Inhibition [34]: 46%; Percent Inhibition [35]: 28%; Percent Inhibition [36]: 81%
COc1c(CC=C(C)C)cc2c(=O)c3c(O)cc(O)cc3oc2c1O [gl-16]	34%	9%	16%	27%	17%	45%	77%	25%	55%	57%	57%	69%	50%	67%	50%	46%	58%	26%	37%	50%	Percent Inhibition [21]: 33%; Percent Inhibition [22]: 61%; Percent Inhibition [23]: 18%; Percent Inhibition [24]: 55%; Percent Inhibition [25]: 21%; Percent Inhibition [26]: 42%; Percent Inhibition [27]: 12%; Percent Inhibition [28]: 41%; Percent Inhibition [29]: 56%; Percent Inhibition [30]: 47%; Percent Inhibition [31]: 45%; Percent Inhibition [32]: 41%; Percent Inhibition [33]: 36%; Percent Inhibition [34]: 28%; Percent Inhibition [35]: 63%; Percent Inhibition [36]: 93%
COc1c(CC=C(C)C)cc2c(=O)c3c(O)cc(O)cc3oc2c1OC [gl-6]	47%	27%	25%	14%	27%	41%	41%	45%	51%	59%	43%	44%	34%	42%	32%	40%	55%	36%	36%	52%	Percent Inhibition [21]: 44%; Percent Inhibition [22]: 16%; Percent Inhibition [23]: 14%; Percent Inhibition [24]: 46%; Percent Inhibition [25]: 23%; Percent Inhibition [26]: 22%; Percent Inhibition [27]: 25%; Percent Inhibition [28]: 39%; Percent Inhibition [29]: 9%; Percent Inhibition [30]: 45%; Percent Inhibition [31]: 46%; Percent Inhibition [32]: 18%; Percent Inhibition [33]: 31%; Percent Inhibition [34]: 31%; Percent Inhibition [35]: 36%; Percent Inhibition [36]: 90%
O=C(c1ccc(O)c(O)c1)c1c(O)cc(O)cc1O [gl-25]	-10%	-5%	-3%	-10%	-5%	-3%	3%	9%	-2%	-26%	-1%	-8%	1%	11%	0%	5%	-3%	1%	5%	1%	Percent Inhibition [21]: -9%; Percent Inhibition [22]: -30%; Percent Inhibition [23]: 0%; Percent Inhibition [24]: -12%; Percent Inhibition [25]: -10%; Percent Inhibition [26]: -13%; Percent Inhibition [27]: -9%; Percent Inhibition [28]: -9%; Percent Inhibition [29]: -74%; Percent Inhibition [30]: -14%; Percent Inhibition [31]: -8%; Percent Inhibition [32]: -10%; Percent Inhibition [33]: -8%; Percent Inhibition [34]: -2%; Percent Inhibition [35]: -5%; Percent Inhibition [36]: -3%
CC(C)=CCc1c2c(c(O)c3c1OC14C(=CC5CC1C(C)(C)OC4(CC=C(C)C(=O)O)C5=O)C3=O)C=CC(C)(C)O2 (stereo not drawn) [GB27]	88%	98%	98%	98%	97%	98%	99%	99%	99%	98%	99%	99%	99%	99%	99%	99%	98%	98%	95%	98%	Percent Inhibition [21]: 99%; Percent Inhibition [22]: 99%; Percent Inhibition [23]: 98%; Percent Inhibition [24]: 99%; Percent Inhibition [25]: 99%; Percent Inhibition [26]: 93%; Percent Inhibition [27]: 98%; Percent Inhibition [28]: 90%; Percent Inhibition [29]: 99%; Percent Inhibition [30]: 97%; Percent Inhibition [31]: 98%; Percent Inhibition [32]: 99%; Percent Inhibition [33]: 99%; Percent Inhibition [34]: 99%; Percent Inhibition [35]: 99%; Percent Inhibition [36]: 99%
